Measured values published in PubChem BioAssay (NCI).
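Tested at 5 concentrations; 48 h exposure; 96-well plates; endpoints linearly interpolated, else capped at highest concentration. GI50: concentration for 50% inhibition of growth. TGI: total growth inhibition.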

Legend:
Test in all cases: NCI anticancer screen, dose series, 48 h
[1] = tested on: 786-0 renal
[2] = tested on: A498 renal
[3] = tested on: A549 NSCLC
[4] = tested on: ACHN renal
[5] = tested on: BT-549 breast
[6] = tested on: CAKI-1 renal
[7] = tested on: CCRF-CEM leukemia
[8] = tested on: COLO 205 colon
[9] = tested on: DU-145 prostate
[10] = tested on: EKVX NSCLC
[11] = tested on: HCC-2998 colon
[12] = tested on: HCT-116 colon
[13] = tested on: HCT-15 colon
[14] = tested on: HL-60(TB) leukemia
[15] = tested on: HOP-62 NSCLC
[16] = tested on: HOP-92 NSCLC
[17] = tested on: HS 578T breast
[18] = tested on: HT29 colon
[19] = tested on: IGROV1 ovarian
[20] = tested on: K-562 leukemia
[21] = tested on: KM12 colon
[22] = tested on: LOX IMVI melanoma
[23] = tested on: M14 melanoma
[24] = tested on: MALME-3M melanoma
[25] = tested on: MCF7 breast
[26] = tested on: MDA-MB-231 breast
[27] = tested on: MDA-MB-435
[28] = tested on: MDA-MB-468 breast
[29] = tested on: MOLT-4 leukemia
[30] = tested on: NCI-H226 lung
[31] = tested on: NCI-H23 lung
[32] = tested on: NCI-H460 lung
[33] = tested on: NCI-H522 lung
[34] = tested on: NCI/ADR-RES ovarian
[35] = tested on: OVCAR-3 ovarian
[36] = tested on: OVCAR-4 ovarian
[37] = tested on: OVCAR-5 ovarian
[38] = tested on: OVCAR-8 ovarian
[39] = tested on: PC-3 prostate
[40] = tested on: RPMI-8226 leukemia
[41] = tested on: RXF 393 renal
[42] = tested on: SF-268 CNS
[43] = tested on: SF-295 CNS
[44] = tested on: SF-539 CNS
[45] = tested on: SK-MEL-2 melanoma
[46] = tested on: SK-MEL-28 melanoma
[47] = tested on: SK-MEL-5 melanoma
[48] = tested on: SK-OV-3 ovarian
[49] = tested on: SN12C renal
[50] = tested on: SNB-19 CNS
[51] = tested on: SNB-75 CNS
[52] = tested on: SR leukemia
[53] = tested on: SW-620 colon
[54] = tested on: T-47D breast
[55] = tested on: TK-10 renal
[56] = tested on: U251 CNS
[57] = tested on: UACC-257 melanoma
[58] = tested on: UACC-62 melanoma
[59] = tested on: UO-31 renal

C=CCn1c(SCC(=O)Nc2ccc(C(=O)/C=C/c3ccccc3)cc2)nnc1-c1c[nH]c2ccccc12
GI50 [1]: 20.7 µM
TGI [1]: 44 µM
GI50 [2]: 16.7 µM
TGI [2]: 38.5 µM
GI50 [3]: 12.1 µM
TGI [3]: 51.9 µM
GI50 [4]: 11.6 µM
TGI [4]: > 100 µM
GI50 [5]: 13.1 µM
TGI [5]: 28.7 µM
GI50 [6]: 12.1 µM
TGI [6]: > 100 µM
GI50 [7]: 5.58 µM
TGI [7]: > 100 µM
GI50 [8]: 17.6 µM
TGI [8]: 38.2 µM
GI50 [9]: 25 µM
TGI [9]: > 100 µM
GI50 [10]: 10.7 µM
TGI [10]: > 100 µM
GI50 [11]: 2.69 µM
TGI [11]: 7.56 µM
GI50 [12]: 1.89 µM
TGI [12]: 3.99 µM
GI50 [13]: 2.37 µM
TGI [13]: 5.53 µM
GI50 [14]: 12.7 µM
TGI [14]: > 100 µM
GI50 [15]: 47.5 µM
TGI [15]: > 100 µM
GI50 [16]: 6.54 µM
TGI [16]: > 100 µM
GI50 [17]: 9.05 µM
TGI [17]: > 100 µM
GI50 [18]: 3.27 µM
TGI [18]: 12.3 µM
GI50 [19]: 22.5 µM
TGI [19]: 86.3 µM
GI50 [20]: 3.37 µM
TGI [20]: > 100 µM
GI50 [21]: 12.6 µM
TGI [21]: 37.9 µM
GI50 [22]: 2.14 µM
TGI [22]: 5.34 µM
GI50 [23]: 12 µM
TGI [23]: 37.5 µM
GI50 [24]: 50.6 µM
TGI [24]: > 100 µM
GI50 [25]: 1.86 µM
TGI [25]: 4.62 µM
GI50 [26]: 11.3 µM
TGI [26]: 42.9 µM
GI50 [27]: 3.08 µM
TGI [27]: 10.6 µM
GI50 [28]: 4.41 µM
TGI [28]: 17.4 µM
GI50 [29]: 4.37 µM
TGI [29]: > 100 µM
GI50 [30]: 7.06 µM
TGI [30]: 30.6 µM
GI50 [31]: 14.4 µM
TGI [31]: 29.8 µM
GI50 [32]: 40.8 µM
TGI [32]: > 100 µM
GI50 [33]: 12.4 µM
TGI [33]: 80.3 µM
GI50 [34]: 32.2 µM
TGI [34]: > 100 µM
GI50 [35]: 9.93 µM
TGI [35]: 56.4 µM
GI50 [36]: 7.07 µM
TGI [36]: > 100 µM
GI50 [37]: > 100 µM
TGI [37]: > 100 µM
GI50 [38]: 36 µM
TGI [38]: > 100 µM
GI50 [39]: 5.25 µM
TGI [39]: 64.4 µM
GI50 [40]: 2.36 µM
TGI [40]: 7.39 µM
GI50 [41]: 3.93 µM
TGI [41]: 17.9 µM
GI50 [42]: 10.9 µM
TGI [42]: > 100 µM
GI50 [43]: 5.85 µM
TGI [43]: 37 µM
GI50 [44]: 11.8 µM
TGI [44]: 24.6 µM
GI50 [45]: 11.2 µM
TGI [45]: 55.4 µM
GI50 [46]: 13.5 µM
TGI [46]: 27.9 µM
GI50 [47]: 3.91 µM
TGI [47]: 15 µM
GI50 [48]: 14.7 µM
TGI [48]: 32.4 µM
GI50 [49]: 27.7 µM
TGI [49]: > 100 µM
GI50 [50]: 20 µM
TGI [50]: > 100 µM
GI50 [51]: 2.69 µM
TGI [51]: > 100 µM
GI50 [52]: 6.09 µM
TGI [52]: 92.4 µM
GI50 [53]: 8.21 µM
TGI [53]: 25.5 µM
GI50 [54]: 3.78 µM
TGI [54]: 62.3 µM
GI50 [55]: > 100 µM
TGI [55]: > 100 µM
GI50 [56]: 6.65 µM
TGI [56]: 19.9 µM
GI50 [57]: 20.5 µM
TGI [57]: 88.7 µM
GI50 [58]: 9.27 µM
TGI [58]: > 100 µM
GI50 [59]: 5.28 µM
TGI [59]: 23.1 µM
